Reference: patent publication US20060154984A1, “Therapeutic use of acyl glycerols and the nitrogen- and sulphur- containing analogues thereof” (priority 2003, published 2006)

Assays:
PPARα = target: T1, PPARα (Homo sapiens, UniProt Q07869); experiment: Gal4/PPARα transactivation system in HepG2 cells (luciferase reporter); format: cell-based; conditions: HepG2 cells transfected with Gal4/PPARα plasmids, 24 h
T1 construct: expressed in transfected cells; host or cells: HepG2
T1 sequence (Q07869 239-466 limits assumed): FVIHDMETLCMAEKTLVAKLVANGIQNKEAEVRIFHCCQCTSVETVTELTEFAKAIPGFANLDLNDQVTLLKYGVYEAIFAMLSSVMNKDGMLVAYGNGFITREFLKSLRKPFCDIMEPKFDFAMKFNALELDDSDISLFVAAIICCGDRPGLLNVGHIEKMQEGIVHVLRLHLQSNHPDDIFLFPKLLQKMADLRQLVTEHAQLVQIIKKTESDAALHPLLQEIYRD
Method: PPAR activation was tested in vitro in RK13 fibroblast cell lines or in a hepatocyte line HepG2 by measuring the transcriptional activity of chimeras composed of the DNA binding domain of the yeast gal4 transcription factor and the ligand binding domain of the different PPARs. The example below is given for HepG2 cells.
HepG2 cells were from ECACC (Porton Down, UK) and were grown in DMEM medium supplemented with 10% (VN) fetal calf serum, 100 U/ml penicillin (Gibco, Paisley, UK) and 2 mM L-glutamine (Gibco, Paisley, UK). The culture medium was changed every two days. Cells were kept at 37° C. in a humidified 95% air/5% CO2 atmosphere.
The plasmids pG5TkpGL3, PRL-CMV, pGal4-hPPARα, pGal4-hPPARγ and pGal4-f have been described by Raspe et al. (Raspe, Madsen et al. 1999). The pGal4-mPPARα and pGal4-hPPARβ constructs were obtained by cloning PCR-amplified DNA fragments corresponding to the DEF domains of the mouse PPARα and […] nuclear receptors, respectively, into the pGal4-f vector.
HepG2 cells were seeded in 24-well culture dishes at 5×10^4 cells/well and transfected for 2 hours with the reporter plasmid pG5TkpGL3 (50 ng/well), the expression vectors pGal4-f, pGal4-mPPARα, pGal4-hPPARα, pGal4-hPPARγ, or pGal4-hPPARβ (100 ng/well) and the transfection efficiency control vector pRL-CMV (1 ng/well) according to the previously described protocol (Raspe, Madsen et al. 1999), then incubated for 36 hours with the test compounds. At the end of the experiment, the cells were lysed (Gibco, Paisley, UK) and luciferase activity was determined with a Dual-Luciferase™ Reporter Assay System kit (Promega, Madison, Wis., USA) according to the supplier's instructions. The protein content of the cell extracts was then measured with the Bio-Rad Protein Assay kit (Bio-Rad, Munich, Germany) as directed by the supplier. […] FIG. 3 gives an example of the results obtained with the inventive compounds.
FIG. 3: HepG2 cells transfected with Gal4/PPARα plasmids were incubated with different concentrations (5, 15, 50 and 100 μM) of the inventive comopunds (Ex 2a, Ex 4a, Ex 4p, Ex 5a, Ex 7 and Ex 11) for 24 h and with different concentrations of the vehicle (PC) noted 1, 2, 3, 4 as controls for the 5, 15, 50 and 100 μM concentrations of the inventive compounds (according to the 4:1 (m/m) ratio described in example 2 (Method of preparation of the inventive compounds for in vitro studies)). The results are expressed as the induction factor (luminescent signal of treated cells divided by luminescent signal of untreated cells) after the different treatments. […] The induction factors for inventive compound Ex 4p were 35 at 100 μM, 44 at 50 μM, 36 at 15 μM and 24 at 5 μM. The induction factors for compound Ex 5a were 32 at 100 μM, 34 at 50 μM, 15 at 15 μM and 4 at 5 μM. Finally, inventive compound Ex 7 induced a 19-fold induction at 100 μM, 19 at 50 μM, 7 at 15 μM and 1.5 at 5 μM. In contrast, when the cells were incubated with the vehicle (PC liposome), no significant induction was observed.

[1] = system: 6-OHDA-induced dopaminergic lesion; experiment: Rat model of Parkinson's disease (6-OHDA), behavioral sensitization to apomorphine; format: in vivo; conditions: Wistar rats, 300 mg/kg per day in diet, 7 days before and 15 days after 6-OHDA lesion
Method: Adult male Wistar rats (280-300 g) were maintained on a 12-hour light/dark cycle at a constant temperature of 20±3° C. Animals had access to food and water ad libitum and weight gain was recorded.
Animals were fed a normal diet or a diet supplemented with the inventive compounds (300 mg/kg per day) for 7 days before induction of the dopaminergic lesion and for 15 days after induction of same.
6-hydroxydopamine (6-OHDA) is a neurotoxin taken up by dopaminergic neurons via a dopamine transporter. Injection of said compound into striatonigral projections induces selective destruction of dopaminergic neurons, and has allowed the development of many animal models of Parkinson's disease (Bordet et al., 2000).
Seven days after commencement of treatment with the inventive compounds, the rats were stereotactically injected with 6-OHDA (4 μg for 8 min) or buffer (sham rats) in the left part of the median tract of the telencephalon to induce striatonigral denervation.
Apomorphine is a dopaminergic agonist which stimulates D1 and D2 receptors. The intensity of rotational behavior is an index allowing to measure the severity of the striatonigral lesion. At the end of the treatment, rats received an intraperitoneal injection of apomorphine and rotational behavior was evaluated 15 minutes after sensitization and for a 10 minute period.

LDL = LDL oxidation by copper, conjugated diene formation (OD 234 nm); format: biochemical; conditions: 10^−4 M
Method: Oxidation of LDL is an important modification which plays a major role in the onset and development of atherosclerosis (Jurgens, Hoff et al. 1987). […] Unless otherwise indicated, all reagents were from Sigma (St Quentin, France).
LDL were prepared as described by Lebeau et al. (Lebeau, Furman et al. 2000). The solutions of the test compounds were prepared at 10^−2 M in ethanol and diluted in PBS so that the final concentration ranged from 0.1 to 100 μM with a total ethanol concentration of 1% (VN).
Before oxidation, EDTA was removed from the LDL preparation by dialysis. The oxidation reaction was then carried out at 30° C. by adding 100 μl of 16.6 μM CuSO4 to 800 μl of LDL (125 μg protein/ml) and 100 μl of a test compound solution. The formation of dienes, the species to be followed, was measured by the optical density at 234 nm in the samples treated with the compounds in the presence or absence of copper. Optical density at 234 nm was measured every 10 minutes for 8 hours on a thermostated spectrophotometer (Kontron Uvikon 930). The analyses were carried out in triplicate. A compound was considered to have antioxidant activity when it shifted the lag phase latency relative to the control sample. […] FIG. 4 presents an example of the results obtained with the inventive compounds.

CCCCCCCCCCCCCCSCC(=O)OCC(COC(=O)CSCCCCCCCCCCCCCC)OC(=O)CSCCCCCCCCCCCCCC [Ex 4a, 1,2,3-tritetradecylthioacetylglycerol] was tested, and the “induction factor (luminescent signal of treated cells divided by luminescent signal of untreated cells)” value (PPARα; 5 μM) was 6 fold, the “induction factor (luminescent signal of treated cells divided by luminescent signal of untreated cells)” value (PPARα; 15 μM) was 15 fold and the “induction factor (luminescent signal of treated cells divided by luminescent signal of untreated cells)” value (PPARα; 50 μM) was 23 fold. The “induction factor (luminescent signal of treated cells divided by luminescent signal of untreated cells)” value (PPARα; 100 μM) was 33 fold, the “number of apomorphine-induced rotations” value [1] was “prophylactic and curative properties” and the “LDL oxidation rate (rate of conjugated diene formation)” value (LDL; copper alone 3 nmol/min/mg of LDL) was 1 nmol/min/mg of LDL. For the same molecule, the “decrease in the maximum amount of conjugated dienes formed” value (LDL; copper alone 496 nmol per mg of LDL) was 60%, the “lag phase for conjugated diene formation” value (LDL; copper alone 104 minutes) was 270 min and the “decrease in the oxidation rate” value (LDL; relative to copper alone) was 66%. For the same molecule, the “increase in the lag phase” value (LDL; relative to copper alone) was 160%.
